Results taken from patent publication US8986946B2, “Real-time method for the detection of viable micro-organisms” (Nederlandse Organisatie Voor …, priority 2007, dated 2015).

How the values were obtained:
[1] = tested on: yeast (and other fungal) strains: Candida albicans ATCC 10231, Saccharomyces cereuisiae ATCC9763; assay: Real-time viability assay for various micro-organisms (yeast strains); assay type: cell-based, Saccharomyces cerevisiae; settings: 100 mM potassium phosphate buffer pH 2
Description: Typical real-time viability assay. Staphylococcus aureus strain ATCC 6538 is cultured overnight at 100 RPM at 37° C. in 10-ml of a rich trypticase soy broth (TSB) medium. A culture volume of 5 ml is centrifuged at 2000 RPM for 10 min and resuspended in 2 ml of physiological salt solution (peptone, 0.9% NaCl) followed by an OD600 measurement. A culture suspension of 1 ml is heat-inactivated by incubation at 95° C. for 5 min. (nonviable control cell suspension). A volume of 100 μl of a viable and a nonviable cell suspension is pipetted in separate wells of a polystyrene 96-well, flat-bottom microtiter plate. Subsequently, fluorescence emission kinetics (excitation wavelength 290 nm; emission wavelength 402 nm) are monitored for 500 seconds with a time interval of 200 ms, number of reads 5. […] Hereafter, the fluorescence signal decays on a minute time-scale as a result of the loss of membrane integrity or cell viability. […] From 60.2 seconds the signal will remain constant as the membrane is permeable in nonviable cells allowing quenching of fluorescence by acidification of the intracellular environment. Real-time viability assay for various micro-organisms. Bacterial and yeast strains were cultured overnight at 37° C. at 100 RPM in 10-ml of a rich trypticase soy broth (TSB) medium. A culture volume of 5 ml is centrifuged at 2000 RPM for 10 min and resuspended in 2 ml of physiological salt solution (peptone, 0.9% NaCl) followed by an OD600 measurement. The yeast strains include Candida albicans ATCC 10231, Saccharomyces cereuisiae ATCC9763 and the bacterial strains include A Staphylococcus aureus strain ATCC 6538, Enterobacter cloacae LMG 2783, Escherichia coli ATCC 10536, Bacillus subtilis DSM618 and Pseudomonas aeruginosa ATCC27853. The assay is carried out as specified above for Staphylococcus aureus. […] Accordingly, quantification of the number of viable cells of the yeast and other fungal strains should occur on the basis of increase of fluorescence over the measured period of time.

[2] = tested on: Saccharomyces cerevisiae ATCC 9763; assay: Real-time viability assay, uptake of the phototautomeric compound followed by fluorescence; assay type: cell-based; settings: for uptake by yeast: 50 μM compound in 100 mM potassium phosphate buffer pH 2 (FIG. 6)
Description: (§1) A solution of 100 μl containing 50 μM compound in 100 mM potassium phosphate buffer pH 7 is used for recording the excitation and emission wavelengths in a Tecan microplate fluorometer. The ratio of emission intensity at pH 7.5 and 1 as well as the ratio of emission intensity at pH 7 and 2 (indicated by the asterisk) was recorded with 100 μl solution containing 50 μM compound in 100 mM potassium phosphate buffer pH 2 or 7 in a Tecan microplate fluorometer at optimal excitation wavelength. Uptake of compounds by viable and nonviable (heat-inactivated for 5 minutes at 95° C.) Staphylococcus aureus ATCC 6538 and Sachromyces serervisiae ATCC 9763 cells is real-time monitored in a Tecan microplate fluorometer at optimal excitation and emission wavelengths. A solution of 50 μM compound in 100 mM potassium phosphate buffer pH2 was added to 100 μl cell suspensions at t=20 seconds, uptake of compound was monitored for 180 seconds.
(§2) A solution of 100 μl containing 50 μM o-hydroxycinnamic acid, 100 mM potassium phosphate buffer pH 2, was added at t=20 seconds, as indicated by the arrow.
Real-time viability assay for various micro-organisms. Bacterial and yeast strains were cultured overnight at 37° C. at 100 RPM in 10-ml of a rich trypticase soy broth (TSB) medium. A culture volume of 5 ml is centrifuged at 2000 RPM for 10 min and resuspended in 2 ml of physiological salt solution (peptone, 0.9% NaCl) followed by an OD600 measurement. The yeast strains include Candida albicans ATCC 10231, Saccharomyces cereuisiae ATCC9763 and the bacterial strains include A Staphylococcus aureus strain ATCC 6538, Enterobacter cloacae LMG 2783, Escherichia coli ATCC 10536, Bacillus subtilis DSM618 and Pseudomonas aeruginosa ATCC27853. The assay is carried out as specified above for Staphylococcus aureus. […] Accordingly, quantification of the number of viable cells of the yeast and other fungal strains should occur on the basis of increase of fluorescence over the measured period of time.

[3] = tested on: Saccharomyces cerevisiae ATCC 9763; assay: as above; assay type: cell-based; settings: 2 mM salicylic acid, pH 2
[4] = tested on: Staphylococcus aureus ATCC 6538; assay: as above; assay type: cell-based; settings: for uptake by bacteria: 50 μM compound in 100 mM potassium phosphate buffer pH 2 (FIG. 6); for rise in fluorescence after addition of the compound, viable vs nonviable cells: 50 μM compound, 100 mM potassium phosphate buffer pH 2, added at t=20 seconds
Description: as §1, §2
Typical real-time viability assay. Staphylococcus aureus strain ATCC 6538 is cultured overnight at 100 RPM at 37° C. in 10-ml of a rich trypticase soy broth (TSB) medium. A culture volume of 5 ml is centrifuged at 2000 RPM for 10 min and resuspended in 2 ml of physiological salt solution (peptone, 0.9% NaCl) followed by an OD600 measurement. A culture suspension of 1 ml is heat-inactivated by incubation at 95° C. for 5 min. (nonviable control cell suspension). A volume of 100 μl of a viable and a nonviable cell suspension is pipetted in separate wells of a polystyrene 96-well, flat-bottom microtiter plate. Subsequently, fluorescence emission kinetics (excitation wavelength 290 nm; emission wavelength 402 nm) are monitored for 500 seconds with a time interval of 200 ms, number of reads 5. […] Hereafter, the fluorescence signal decays on a minute time-scale as a result of the loss of membrane integrity or cell viability. […] From 60.2 seconds the signal will remain constant as the membrane is permeable in nonviable cells allowing quenching of fluorescence by acidification of the intracellular environment.

O=C(O)c1c(O)ccc2ccccc12 [2H-1NA, 2-hydroxy-1-naphtoic acid]
accumulation of the compound by yeast (and other fungal) strains [1]: relatively slowly | decay of fluorescent signal in yeast (and other fungal) strains [1]: no decay of fluorescent signal

Nc1ccc(C(=O)O)c(O)c1 [4-amino salicylic acid]
uptake by yeast [2]: hardly taken up by yeast

O=C(O)c1ccccc1O [salicylic acid]
accumulation of the compound by yeast (and other fungal) strains [1]: relatively slowly | decay of fluorescent signal in yeast (and other fungal) strains [1]: no decay of fluorescent signal | uptake by yeast [2]: taken up by both bacteria and yeast | permeability of the cell membrane to the compound, compared with bacteria [3]: less-permeable | uptake by bacteria [4]: taken up by both bacteria and yeast | time constant of the acidification process ([4]; 2 mM salicylic acid, 100 mM potassium phosphate buffer pH 2): 0.005 s⁻¹ | time scale of the rapid rise in fluorescence (transfer from the extracellular to the intracellular medium) ([4]; 100 μl of 2 mM salicylic acid, 100 mM potassium phosphate buffer pH 2, injected at 60 seconds): < 200 ms | uptake of salicylic acid by the bacteria (time) ([4]; stationary culture, 2 mM salicylic acid, 100 mM potassium phosphate buffer pH 2): within seconds

O=C(O)C=Cc1ccccc1O [o-hydroxycinnamic acid]
uptake by yeast [2]: hardly taken up by yeast | rise in fluorescence after addition of the compound, viable vs nonviable cells [4]: only observed for viable Staphylococcus aureus cells

Nc1cc2ccccc2cc1C(=O)O [3-amino-2-napthoic acid]
uptake by yeast [2]: taken up by both bacteria and yeast | uptake by bacteria [4]: taken up by both bacteria and yeast

O=C(O)c1cc(O)ccc1O [gentisic acid, 2,5-dihydroxybenzoic acid]
rise in fluorescence after addition of the compound, viable vs nonviable cells [4]: only observed for viable Staphylococcus aureus cells

Nc1ccc(O)c(C(=O)O)c1 [5-amino salicylic acid]
uptake by yeast [2]: hardly taken up by yeast

O=C(O)c1ccc2ccccc2c1O [1H-2NA, 1-hydroxy-2-naphtoic acid]
accumulation of the compound by yeast (and other fungal) strains [1]: relatively slowly | decay of fluorescent signal in yeast (and other fungal) strains [1]: no decay of fluorescent signal | uptake by yeast [2]: taken up by both bacteria and yeast | uptake by bacteria [4]: taken up by both bacteria and yeast

O=C(O)c1ccc(O)cc1O [4-hydroxy salicylic acid]
uptake by yeast [2]: hardly taken up by yeast

Cn1c(=O)n(C)c2cc(C(=O)O)c(N)cc21 [6-amino-1,3-dimethyl-2-oxo-2,3-dihydro-1H-benzoimidazole-5-carboxylic acid]
rise in fluorescence after addition of the compound, viable vs nonviable cells ([2]; 50 μM compound, 100 mM potassium phosphate buffer pH 2, added at t=20 seconds): only observed for viable Saccharomyces cereuisiae cells

O=C(O)c1cc2oc3ccccc3c2cc1O [S350729]
uptake by yeast [2]: taken up by both bacteria and yeast | uptake by bacteria [4]: taken up by both bacteria and yeast
